How the values were obtained:
rHER2 [1] = test: IFNγ ELISPOT, rHER2 DNA vaccine with CpG7909 or anti-CD40 in BALB/c mice; assay type: in vivo, mouse; details: FIG. 40; intradermal after PMED; CpG7909 50 g or anti-CD40 100 ug as printed; versus control antibodies; 7 days after PMED
Protocol: The effect of local administration of immune modulators on the magnitude and quality of antigen specific immune responses induced by a cancer was investigated in BALB/c mice, in which the immune response was assessed by measuring rHER2 specific T cell responses using the IFNγ ELISPOT assay or intracellular cytokine staining assay. Briefly, 4 to 6 female BALB/c mice per group as indicated were immunized with DNA plasmid expression constructs encoding rHER2 antigen sequences (SEQ ID NO:54) by PMED delivery system. […] Antigen specific T cell responses were measured by IFNγ […]ELISPOT or intracellular cytokine staining assay according to the procedure described below.
Briefly, each mouse per treatment group (n=4) was immunized with DNA plasmid expression constructs encoding rHER2 antigen sequences (SEQ ID NO:54) by PMED immediately followed by either 100 ug of control rat IgG monoclonal antibody (Bioxcell #BE0089: control mAb) or 50 g CpG7909 or 100 ug of anti-CD40 monoclonal antibody (Bioxcell #BE0016-2: a-CD40 mAb) as indicated. The antigen specific immune responses were measured by IFNγ ELISPOT assay from 5e5 splenocytes mixed with control or rHer-2 specific p66 peptides at 10 µg/ml concentration, 7 days after the PMED actuation. […]

rHER2 [2] = test: Intracellular cytokine staining, rHER2 DNA vaccine with CpG 7909 or anti-CD40 in BALB/c mice; assay type: in vivo, rat; details: FIGS. 41A, 41B; CpG 7909 intradermal after both PMED immunizations, versus PBS
Protocol: The effect of local administration of immune modulators on the magnitude and quality of antigen specific immune responses induced by a cancer was investigated in BALB/c mice, in which the immune response was assessed by measuring rHER2 specific T cell responses using the IFNγ ELISPOT assay or intracellular cytokine staining assay. Briefly, 4 to 6 female BALB/c mice per group as indicated were immunized with DNA plasmid expression constructs encoding rHER2 antigen sequences (SEQ ID NO:54) by PMED delivery system. The immune modulators, CpG7909 (PF-03512676) and anti-CD40 monoclonal agonistic antibody, were administered locally by intradermal injections in proximity to the vaccine draining inguinal lymph node subsequently after the PMED actuations. Antigen specific T cell responses were measured by IFNγ […]ELISPOT or intracellular cytokine staining assay according to the procedure described below.
The rHer-2 specific polyfunctional (multi-cytokine positive) T cell immune responses were measured from splenocytes or PBMCs isolated from individual animals by ICS assay. […] The total number of antigen specific single, double or triple cytokine positive T cells per total spleen of each animal is calculated by subtracting the rHer-2 specific responses to the irrelevant peptide HBV from the vaccine specific responses and normalized to the total number of splenocytes isolated from the spleen.

[3] = cited from earlier work
rhesus PSMA = test: IFNγ ELISPOT of PBMCs, PSMA DNA electroporation with or without CpG in Chinese cynomolgus macaques, rhesus PSMA peptide pools; assay type: in vivo; details: group 6: 200 μg CpG co-electroporated, compared to animals that did not receive CpG (group 1); P<0.05
Protocol: (§1) Six groups of Chinese cynomolgus macaques, six (#1 to 6) per each test group, were immunized with a plasmid DNA encoding the human PSMA modified antigen (amino acids 15-750 of SEQ ID NO:1) delivered by electroporation. Briefly, all animals received bilateral intramuscular injections of 5 mg of plasmid DNA followed by electroporation (DNA EP) on day 0. Subsequently right after the electroporation, group 2 received bilateral intramuscular injections of 2 mg of CpG mixed with 1 mg Alum in proximity to the DNA injection sites. Group 3 and 4 received bilateral intramuscular injections of 2 mg of CpG delivered without alum in proximity to the DNA injection sites either on day 0 or day 3, respectively. Group 5 received 2 mg of bilateral intradermal injections of CpG delivered in proximity to the vaccine draining inguinal nodes on day 3. Group 6 received bilateral injections of 200 μg of CpG mixed with the DNA solution which was co-electroporated into the muscle on day 0.
Peripheral blood samples were collected from each animal fifteen days after the DNA immunization. Peripheral blood mononuclear cells (PBMCs) were isolated from the blood samples and were subjected to an IFNγELISPOT assay to measure the PSMA specific T cell responses. […] The number of IFNγ spot forming cells (SFC) were counted by CTL reader. […] ND indicates not determined.

human PSMA = test: IFNγ ELISPOT of PBMCs, PSMA DNA electroporation with or without CpG in Chinese cynomolgus macaques, human PSMA peptide pools; assay type: in vivo, cynomolgus macaque; details: for animals that failed to produce high responses: intramuscular right after electroporation on day 0; for animals with modestly higher total response to the PSMA peptides: 3 days after DNA electroporation, cynomolgus
Protocol: as §1
Peripheral blood samples were collected from each animal fifteen days after the DNA immunization. Peripheral blood mononuclear cells (PBMCs) were isolated from the blood samples and were subjected to an IFNγELISPOT assay to measure the PSMA specific T cell responses. Briefly, 4e5 PBMCs from individual animals were plated per well with pools of PSMA specific peptides or nonspecific control peptides (human HER2 peptide pool) each at 2 ug/ml in IFNγELISPOT plates. The plates were incubated for 16 hrs at 37° C. and 5% CO2 and washed and developed after incubation as per manufacturer's instruction. The number of IFNγ spot forming cells (SFC) were counted by CTL reader. Each condition was performed in duplicates. […] ND indicates not determined.

LNCaP = test: Antibody-dependent cell-mediated cytotoxicity, chromium 51 release, human PBMC effectors; assay type: cell-based; details: target LNCaP (PSMA+); plasma 1:50 or control mAb
Protocol: (§2) An Indian rhesus macaque was immunized with a nucleic acid encoding a human PSMA modified antigen delivered by adenovirus (1e11 V.P. injected intramuscularly) followed by 2 PMED immunizations (8 actuations/immunization, 4 actuations per each right and left side of the lower abdomen) with 8 and 6 week intervals respectively. The animal also received intradermal injections of 3 mg of CpG (PF-03512676) in proximity to each inguinal draining lymph node at the time of the second PMED immunization. The antibody dependent cell-mediated cytotoxicity was determined from the plasma collected from the blood before any immunizations (pre-immune plasma) and 8 days after the last PMED immunization (immune plasma).
(§3) Antibody-dependent cell-mediated cytotoxicity was determined using the standard chromium 51 release assay. Human prostate cancer cell lines LNCaP and PC3 were used as target cells. Freshly isolated human PBMC cells were used as effector cells. Effectors to target cells were set at 30:1. Briefly, for one labeling reaction, 1.5×10^6 target cells in 200 ul were incubated with 200 μCi ^51Cr (37° C., 5% CO2 for 1 hour).

PC3 = test: as above; assay type: cell-based; details: target PC3 (PSMA negative); plasma 1:50 or control mAb
Protocol: as §2, §3

Substance	magnitude of antigen specific immune responses induced by rHer-2 DNA (IFNγ ELISPOT, p66 peptide) (rHER2 [1])	rHer-2 specific multi-cytokine positive CD8 and CD4 T cell responses (rHER2 [2])	single intravenous dose well tolerated with no clinical effects and no significant toxicity ([3]; patients with previously treated chronic lymphocytic leukemia)	dose limiting toxicity ([3]; single dose subcutaneous)	maximum tolerated dose (MTD) ([3]; single dose subcutaneous) [mg/kg]	response to peptide pool R1 (rhesus PSMA)	animals that failed to produce high responses (human PSMA; group 2: CpG 2 mg mixed with 1 mg Alum)	animals that failed to produce high responses (human PSMA; group 3: CpG 2 mg without alum)	animals with modestly higher total response to the PSMA peptides (human PSMA; group 4: CpG 2 mg bilateral intramuscular)	animals with modestly higher total response to the PSMA peptides (human PSMA; group 5: CpG 2 mg bilateral intradermal)	animals with higher net responses (human PSMA; group 6: 200 μg CpG co-electroporated with the DNA solution into the muscle)	response to peptide pool H1 (human PSMA; group 6: 200 μg CpG co-electroporated, compared to animals that did not receive CpG (group 1), P<0.05)	Percent specific lysis at E:T of 30:1 (LNCaP) [%]	Percent specific lysis at E:T of 30:1 (PC3) [%]
5′ TCGTCGTTTTGTCGTTTTGTCGTT3′ [CpG 7909]	significantly enhanced the magnitude of antigen specific immune responses	significant increase	up to 1.05 mg/kg	myalgia and constitutional effects	0.45	statistically higher response	4/6	3/6	3/6	2/6	4/6	statistically higher response	–	–
Rituxan: monoclonal against B cell antigen (CD20), negative control antibody	–	–	–	–	–	–	–	–	–	–	–	–	8.99	0

— patent publication US11110158B2, “Prostate-associated antigens and vaccine-based immunotherapy regimens” (Pfizer Inc., priority 2012, dated 2021)
